# EP4374708A1, “NUTRITIONAL SUPPLEMENT PREPARATION” (Avea Life AG, priority 2022, dated 2024)
# Assay: physchem
# Conditions: water
compound,measurement,value
O=C(O)[C@@H]1C[C@@H](O)CN1 [hydroxyproline],solubility,198 mM
